{"source": "paper PMC11874750", "about": "“Inhibitory effect of fermented avocado seed extract (Persea americana Mill. cv. Hass) on polyphenol oxidase and its application as anti-browning agent in avocado, apple, and banana pulps” (Heliyon, 2025)", "test_system": "T1, polyphenol oxidase (PPO), crude PPO extract of Hass avocado pulp", "T1 construct": "isoenzyme not identified", "assay": "absorbance at […] nm, Lineweaver-Burk", "assay_type": "biochemical, Persea americana", "settings": "phosphate buffer pH 7.0, catechol 2.7-44.5 mM, also printed as 0.1627 g/L, no inhibitor"}
{"smiles": "Oc1ccccc1O", "note": "[catechol]", "values": [{"measurement": "Km", "value": 1480, "unit": "µM"}]}
